For assay [1], the target named is T1, Btk (Homo sapiens, UniProt Q06187).
T1 construct: purchased Promega (Madison, Wis.)
Kind of assay: Btk kinase assay (ADP-Glo). The following applies: ADP-Glo Btk kinase assay kit; ATP 1.2 μM; 60 minutes at room temperature. It is filed as biochemical. The method in brief:
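Luminescent ADP detection after a 60 min reaction at 22±1 °C containing Btk 2 ng/μl, 1.2 μM ATP, 0.3 μM poly GT peptide and 1.4 mM MnCl2. IC50 from log concentration versus percent inhibition relative to DMSO vehicle.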

Assay [2] deals with TMD-8 cells. Put plainly: Cell proliferation assay (CellTiter-Glo), TMD-8 cells. It is filed as cell-based. The following applies: Homo sapiens, TMD8, 120 h, 5-day treatment, read-out: TMD8 cell growth (GI50 μM). Summed up: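 TMD-8 cells seeded at 5,000–10,000/well, cultured overnight, then exposed to compound (vehicle 0.5% DMSO) for 5 days at 37 °C. Growth read by CellTiter-Glo luminescence; IC50 from log concentration versus % growth inhibition relative to vehicle.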

T1 sequence (Q06187 whole entry): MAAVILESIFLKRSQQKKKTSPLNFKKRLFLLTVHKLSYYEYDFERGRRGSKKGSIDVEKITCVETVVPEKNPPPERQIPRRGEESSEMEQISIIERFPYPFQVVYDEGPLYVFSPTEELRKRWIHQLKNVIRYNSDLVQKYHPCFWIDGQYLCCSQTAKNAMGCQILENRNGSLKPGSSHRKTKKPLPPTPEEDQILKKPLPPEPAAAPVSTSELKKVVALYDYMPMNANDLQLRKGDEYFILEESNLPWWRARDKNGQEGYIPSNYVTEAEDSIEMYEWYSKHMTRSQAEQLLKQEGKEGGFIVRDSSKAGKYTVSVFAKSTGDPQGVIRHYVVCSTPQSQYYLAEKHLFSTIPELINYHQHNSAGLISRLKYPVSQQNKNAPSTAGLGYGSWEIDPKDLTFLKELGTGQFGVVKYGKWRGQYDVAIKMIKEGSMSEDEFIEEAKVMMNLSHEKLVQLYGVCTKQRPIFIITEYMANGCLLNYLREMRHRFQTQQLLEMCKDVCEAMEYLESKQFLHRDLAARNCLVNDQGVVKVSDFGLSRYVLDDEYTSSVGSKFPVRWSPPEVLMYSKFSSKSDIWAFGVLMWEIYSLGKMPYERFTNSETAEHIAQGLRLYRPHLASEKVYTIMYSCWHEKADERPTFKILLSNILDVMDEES

Turning to `C=CC(=O)N1CC[C@@H](Nc2ncnc3[nH]c(C#Cc4ccc5ncccc5c4)cc23)C1` [Example 77, (R)-1-(3-((6-(quinolin-6-ylethynyl)-7H-pyrrolo[2,3-d]pyrimidin-4-yl)amino)pyrrolidin-1-yl)prop-2-en-1-one], half-maximal inhibition in assay [1] (IC50) was put at 0.145 µM. For the same compound, the concentration for 50% growth inhibition (GI50) in assay [2] amounted to 0.526 µM.
`C=CC(=O)N1CC[C@@H](Nc2ncnc3[nH]c(C#CC4CCCCC4)cc23)C1` [Example 78, (R)-1-(3-((6-(cyclohexylethynyl)-7H-pyrrolo[2,3-d]pyrimidin-4-yl)amino)pyrrolidin-1-yl)prop-2-en-1-one] yielded an IC50 in assay [1] of 0.702 µM. Further, the concentration for 50% growth inhibition (GI50) in assay [2] is 2.68 µM.
For `C=CC(=O)N1CC[C@@H](Nc2ncnc3[nH]c(C#Cc4ccoc4)cc23)C1` [Example 79, (R)-1-(3-((6-(furan-3-ylethynyl)-7H-pyrrolo[2,3-d]pyrimidin-4-yl)amino)pyrrolidin-1-yl)prop-2-en-1-one], in that order: 0.002 µM and 0.031 µM.
In assay [1], `C=CC(=O)N1CC[C@@H](Nc2ncnc3[nH]c(C#Cc4cnn(C)c4)cc23)C1` [Example 80, (R)-1-(3-((6-((1-methyl-1H-pyrazol-4-yl)ethynyl)-7H-pyrrolo[2,3-d]pyrimidin-4-yl)amino)pyrrolidin-1-yl)prop-2-en-1-one] gave an IC50 of 0.255 µM. In assay [2], the GI50 is 0.51 µM.
For `C=CC(=O)N1CC[C@@H](Nc2ncnc3[nH]c(C#CCOc4ccccc4OC(F)(F)F)cc23)C1` [Example 81, (R)-1-(3-((6-(3-(2-(trifluoromethoxy)phenoxy)prop-1-yn-1-yl)-7H-pyrrolo[2,3-d]pyrimidin-4-yl)amino)pyrrolidin-1-yl)prop-2-en-1-one], in that order: 0.033 µM and 0.003 µM.
`C=CC(=O)N1CC[C@@H](Nc2ncnc3[nH]c(C#CCOc4ccccc4C#N)cc23)C1` [Example 82, (R)-1-(3-((6-(3-(2-cyanophenoxy)prop-1-yn-1-yl)-7H-pyrrolo[2,3-d]pyrimidin-4-yl)amino)pyrrolidin-1-yl)prop-2-en-1-one] returned an IC50 in assay [1] of 0.038 µM. Further, the GI50 in assay [2] worked out at 0.0045 µM.
For `C=CC(=O)N1CC[C@@H](Nc2ncnc3[nH]c(C#CCOc4cccc5c4OCO5)cc23)C1` [Example 83, (R)-1-(3-((6-(3-(benzo[d][1,3]dioxol-4-yloxy)prop-1-yn-1-yl)-7H-pyrrolo[2,3-d]pyrimidin-4-yl)amino)pyrrolidin-1-yl)prop-2-en-1-one], in that order: 0.008 µM and 0.0017 µM.
For `C=CC(=O)N1CC[C@@H](Nc2ncnc3[nH]c(C#CCOC4CCCCO4)cc23)C1` (stereo partly drawn) [Example 84, 1-((3R)-3-((6-(3-((tetrahydro-2H-pyran-2-yl)oxy)prop-1-yn-1-yl)-7H-pyrrolo[2,3-d]pyrimidin-4-yl)amino)pyrrolidin-1-yl)prop-2-en-1-one], in that order: 0.136 µM and 1.09 µM.
For `C#CC(=O)N1CC[C@@H](Nc2ncnc3[nH]c(C#CCOc4ccccc4F)cc23)C1` [Example 85, (R)-1-(3-((6-(3-(2-fluorophenoxy)prop-1-yn-1-yl)-7H-pyrrolo[2,3-d]pyrimidin-4-yl)amino)pyrrolidin-1-yl)prop-2-yn-1-one], in that order: 0.007 µM and 0.091 µM.
The compound `C=CC(=O)N1CC[C@@H](Nc2ncnc3[nH]c(C#CCn4ncc5ccccc54)cc23)C1` [Example 86, (R)-1-(3-((6-(3-(1H-indazol-1-yl)prop-1-yn-1-yl)-7H-pyrrolo[2,3-d]pyrimidin-4-yl)amino)pyrrolidin-1-yl)prop-2-en-1-one] came in with an IC50 in assay [1] of 0.018 µM. In addition, in assay [2], the GI50 was found to be 0.018 µM.
With `C=CC(=O)N1CC[C@@H](Nc2ncnc3[nH]c(C#CCOc4ccccc4C(F)(F)F)cc23)C1` [Example 87, (R)-1-(3-((6-(3-(2-(trifluoromethyl)phenoxy)prop-1-yn-1-yl)-7H-pyrrolo[2,3-d]pyrimidin-4-yl)amino)pyrrolidin-1-yl)prop-2-en-1-one], the half-maximal inhibitory concentration (IC50) in assay [1] came out at 0.043 µM. Also, in assay [2], the GI50 amounted to 0.002 µM.
The corresponding values for `C=CC(=O)N1CC[C@@H](Nc2ncnc3[nH]c(C#CCOc4c(F)cccc4OC)cc23)C1` [Example 88, (R)-1-(3-((6-(3-(2-fluoro-6-methoxyphenoxy)prop-1-yn-1-yl)-7H-pyrrolo[2,3-d]pyrimidin-4-yl)amino)pyrrolidin-1-yl)prop-2-en-1-one] are 0.018 µM and 0.02 µM.
For `C=CC(=O)N1CC[C@@H](Nc2ncnc3[nH]c(C#CCOc4cccc5sccc45)cc23)C1` [Example 89, (R)-1-(3-((6-(3-(benzo[b]thiophen-4-yloxy)prop-1-yn-1-yl)-7H-pyrrolo[2,3-d]pyrimidin-4-yl)amino)pyrrolidin-1-yl)prop-2-en-1-one], in that order: 0.148 µM and 0.006 µM.
`C=CC(=O)N1CC[C@@H](Nc2ncnc3[nH]c(C#CCOc4c(F)cccc4F)cc23)C1` [Example 90, (R)-1-(3-((6-(3-(2,6-difluorophenoxy)prop-1-yn-1-yl)-7H-pyrrolo[2,3-d]pyrimidin-4-yl)amino)pyrrolidin-1-yl)prop-2-en-1-one]: in assay [1], it took 0.014 µM to reach half-maximal inhibition (IC50). For the same compound, in assay [2], the GI50 was 0.014 µM.
The compound `C=CC(=O)N1CC[C@@H](Nc2ncnc3[nH]c(C#CCOc4cccc(F)c4F)cc23)C1` [Example 91, (R)-1-(3-((6-(3-(2,3-difluorophenoxy)prop-1-yn-1-yl)-7H-pyrrolo[2,3-d]pyrimidin-4-yl)amino)pyrrolidin-1-yl)prop-2-en-1-one] came in with an IC50 in assay [1] of 0.008 µM. Besides, in assay [2], the GI50 was determined as 0.0015 µM.
For `C=CC(=O)N1CC[C@@H](Nc2ncnc3[nH]c(C#CCOc4cc(F)ccc4F)cc23)C1` [Example 92, (R)-1-(3-((6-(3-(2,5-difluorophenoxy)prop-1-yn-1-yl)-7H-pyrrolo[2,3-d]pyrimidin-4-yl)amino)pyrrolidin-1-yl)prop-2-en-1-one], in that order: 0.043 µM and 0.0038 µM.
For `O=C(C1CC1)N1CC[C@@H](Nc2ncnc3[nH]c(C#CCOc4ccccc4F)cc23)C1` [Example 93, (R)-cyclopropyl(3-((6-(3-(2-fluorophenoxy)prop-1-yn-1-yl)-7H-pyrrolo[2,3-d]pyrimidin-4-yl)amino)pyrrolidin-1-yl)methanone], in that order: 0.578 µM and 4.2 µM.
In turn, `O=C([C@H]1C[C@H]1F)N1CC[C@@H](Nc2ncnc3[nH]c(C#CCOc4ccccc4F)cc23)C1` [Example 94, ((1R,2R)-2-fluorocyclopropyl)((R)-3-((6-(3-(2-fluorophenoxy)prop-1-yn-1-yl)-7H-pyrrolo[2,3-d]pyrimidin-4-yl)amino)pyrrolidin-1-yl)methanone] showed an IC50 in assay [1] of 0.346 µM. Moreover, in assay [2], the 50% growth inhibitory concentration (GI50) came to 3.58 µM.
The corresponding values for `C=CC(=O)N1CCC[C@@H](Nc2ncnc3[nH]c(C#Cc4ccccc4)cc23)C1` [Example 96, (R)-1-(3-((6-(phenylethynyl)-7H-pyrrolo[2,3-d]pyrimidin-4-yl)amino)piperidin-1-yl)prop-2-en-1-one] are 0.014 µM and 0.066 µM.
For `C=CC(=O)N1CCC[C@@H](Nc2ncnc3[nH]c(C#Cc4ccc5c(c4)OCO5)cc23)C1` [Example 97, (R)-1-(3-((6-(benzo[d][1,3]dioxol-5-ylethynyl)-7H-pyrrolo[2,3-d]pyrimidin-4-yl)amino)piperidin-1-yl)prop-2-en-1-one], in that order: 0.027 µM and 0.004 µM.

The values are drawn from patent US10144737B2 (ETERNITY BIOSCIENCE INC., priority 2014, dated 2018).
